Measurements as given in US20240300945A1, “CLY SERIES COMPOUND, PREPARATION METHOD THEREFOR AND USE THEREOF IN PREPARATION OF DRUGS” (NANJING WELLBEST PHARMACEUTICAL CO., LTD, priority 2021, published 2024).

Tests used:
[1] = system: chloasma model of guinea pig; experiment: Chloasma model of guinea pig: tyrosine, MDA content and SOD activity of skin tissue; format: in vivo; details: 0.25% cream on the skin once a day, 30 days
Text: 1.1.4 Preparation method of treatment cream: The excipient matrix components include methyl silicone oil (15%), stearic acid (6%), white vaseline (5%), liquid paraffin (5%), octadecanol (5%), glycerin (20%), alkyl aryl polyglycol ether (1%), fatty alcohol polyoxyethylene ether (1%), […] (1%), ethyl paraben (0.1%), distilled water (about 31-55%), and are mixed with appropriate amount of CLY series compounds to form 0.25% mixed emulsion. The cream matrix used in this embodiment refers to the matrix components after the active ingredients are removed from the cream.
According to the body weight, they were randomly divided into the model control group (applied cream matrix), blank control group (applied cream matrix), CLY-1 treatment group (applied 0.25% CLY-1 cream on the skin), CLY-2 treatment group (0.25% CLY-2 cream on the skin), CLY-3 treatment group (0.25% CLY-3 cream on the skin), CLY-4 treatment group (0.25% CLY-4 cream on the skin), CLY-5 treatment group (0.25% CLY-5 cream on the skin) CLY-8 treatment group (0.25% CLY-8 cream on the skin), CLY-11 treatment group (0.25% CLY-11 cream on the skin), CLY-19 treatment group (0.25% CLY-19 cream on the skin), CLY-36 treatment group (0.25% CLY-36 cream on the skin), CLY-39 treatment group (0.25% CLY-39 cream on the skin), positive treatment group (0.25% arbutin cream on the skin), 6 in each group. In addition to the blank control group, all guinea pigs in the other groups were injected with 20 mg/ml progesterone injection (7.5 mg/kg) into the muscle at the root of the hind leg, once a day, for 30 consecutive days to establish the chloasma model. […] After modeling, the guinea pigs in the model control group, blank control group, each CLY series treatment group, and positive treatment group were treated with corresponding cream on the back for intervention, once a day, for 30 consecutive days.
Took one piece of skin tissue from each guinea pig, separately. Washed it with precooled normal saline, removed subcutaneous fat and other connective tissue, and then wiped it dry. Each piece of skin tissue was cut to 0.5 g. Then put it into five small tubes containing 2.0 ml of precooled normal saline. The high-speed dispersion machine homogenizes at a speed of […], lasted for 10 seconds, repeated once, centrifuged at a speed of 3500 r/m for 15 minutes, and took the supernatant. Tyrosine was determined by HPLC, MDA was determined by the thiobarbituric acid method, SOD was determined by the xanthine oxidase method, and tyrosine, MDA content, and SOD activity were determined according to the instructions of the kit.
SPSS16.0 software was used for statistics. The measurement data were expressed by mean±standard deviation (x±s). The comparison between multiple groups was performed by one-way ANOVA, and the comparison between groups was performed by t-test. P<0.05 was statistically significant.

serum IL-4 = experiment: Mouse eczema model: serum IL-4 (ELISA); format: in vivo, C57BL/6 mice; details: after modeling, 0.1% cream for external use twice a day, 10 days (positive: aloxone)
Text: SPF grade female C57BL/6 mice were purchased at the age of 8 weeks (0.02 kg), 6 in each group, and randomly divided into the blank control group, model group, positive drug group, CLY-1 treatment group (0.1% CLY-1 cream for external use), CLY-2 treatment group (0.1% CLY-2 cream for external use), CLY-3 treatment group (0.1% CLY-3 cream for external use), CLY-4 treatment group (0.1% CLY-4 cream for external use), CLY-8 treatment group (0.1% CLY-8 cream for external use), CLY-11 treatment group (0.1% CLY-11 cream for external use) CLY-19 treatment group (0.1% CLY-19 cream for external use), CLY-36 treatment group (0.1% CLY-36 cream for external use) and CLY-39 treatment group (0.1% CLY-39 cream for external use).
Model establishment: the normal control group mice were smeared with 75% ethanol 14.3 ul on both ears, while the model group, positive drug group and treatment group were smeared with 1 nmol/L carpotriol liniment 14.3 ul on both ears at a regular time every day, and then smeared with 20 g/L OVA 25 ul after air drying, once a day, for 12 days to make a model.
From 4 days after the start of modeling, applied the cream matrix on the ear skin of mice in the blank control group and the model group, applied aloxone on the ear skin of mice in the positive drug group, and applied the treatment cream on the ear skin of mice in each treatment group respectively, twice a day in the morning and evening, for 10 consecutive days, took photos every day, and recorded scores.
The thickness of mouse auricle was measured and recorded with ear thickness measuring instrument before and on the 14th day respectively. After the measurement on the 14th day, the mice were sacrificed. Blood was taken and serum was separated.
The enzyme-labeled plate was coated with rabbit anti-mouse interleukin (IL)-4 antibody, stayed at 4° C. overnight, and the reaction was stopped according to the instructions of the ELISA kit to detect the level of serum IL-4. ELISA kits were all purchased from Raybiotech, USA.

[2] = Pharmacokinetic properties of rats (bioavailability); format: in vivo; details: rat, po; male SD rats; intravenous 1 mg/kg, intragastric 5 mg/kg; plasma LC/MS/MS
Procedure: Male SD rats were randomly assigned to each group, 12 rats in each compound group, and then randomly divided into two groups. Six rats were administered intravenously (1 mg/kg), and blood was collected and plasma was separated respectively at 0.0833, 0.25, 0.5, 1, 2, 4, 6, 8, and 24 hours after administration. The other six rats were administered intragastrically (5 mg/kg), and blood was collected and plasma was separated respectively at 0.25, 0.5, 1, 2, 4, 6, 8, and 24 hours after administration. The concentration of each compound in plasma was determined by LC/MS/MS method, and the relevant pharmacokinetic parameters were calculated by using the software Phoenix WinNonlin 6.2.1, the bioavailability in rats was calculated, and the pharmacokinetic properties of each compound were evaluated.

| Compound | MDA [1] | SOD [1] | tyrosine [1] | IL-4 level in peripheral blood (serum IL-4) | bioavailability [2] |
| --- | --- | --- | --- | --- | --- |
| CN1CCC[C@@H](N(C(=O)c2ccc(-n3nnc4cccnc43)cc2)c2ncccc2Cl)C1 [CLY-1, (R)-4-(3H-[1,2,3]triazolo[4,5-b]pyridin-3-yl)-N-(3-chloropyridin-2-yl)-N-(1-methylpiperidin-3-yl)benzamide] | 11.32 ± 1.15 nmol/mL | 103.65 ± 9.63 NU/ml | 0.45 ± 0.07 µg | 6.76 pg/mL | 69.8% |
| CCN1CCC[C@@H](N(C(=O)c2ccc(-n3nnc4cccnc43)cc2)c2ncccc2Cl)C1 [CLY-2, (R)-4-(3H-[1,2,3]triazolo[4,5-b]pyridin-3-yl)-N-(3-chloropyridin-2-yl)-N-(1-ethylpiperidin-3-yl)benzamide] | 10.86 ± 1.19 nmol/mL | 105.23 ± 9.82 NU/ml | 0.43 ± 0.06 µg | 5.58 pg/mL | 72.6% |
| CNC1CCCC(N(C(=O)c2ccc(-n3nnc4cccnc43)cc2)c2ncccc2Cl)C1 (stereo not shown) [CLY-3] | 11.57 ± 1.18 nmol/mL | 97.45 ± 9.23 NU/ml | 0.51 ± 0.07 µg | 7.32 pg/mL | 69.5% |
| O=C(c1ccc(-n2nnc3cccnc32)cc1)N(c1ncccc1Cl)C1CCCC(O)C1 (stereo not shown) [CLY-4] | 11.62 ± 1.15 nmol/mL | 95.12 ± 8.65 NU/ml | 0.53 ± 0.06 µg | 7.51 pg/mL | 59.5% |
| COC1CCCC(N(C(=O)c2ccc(-n3nnc4cccnc43)cc2)c2ncccc2Cl)C1 (stereo not shown) [CLY-5] | 10.65 ± 1.14 nmol/mL | 105.89 ± 9.86 NU/ml | 0.43 ± 0.05 µg | – | 53.8% |
| O=C(c1ccc(-n2nnc3cccnc32)cc1)N(c1ncccc1Cl)[C@@H]1CCNC1 [CLY-8, (R)-4-(3H-[1,2,3]triazolo[4,5-b]pyridin-3-yl)-N-(3-chloropyridin-2-yl)-N-(pyrrolidin-3-yl)benzamide] | 10.59 ± 1.12 nmol/mL | 105.68 ± 9.75 NU/ml | 0.43 ± 0.03 µg | 5.53 pg/mL | 78.2% |
| NC1CCCC(N(C(=O)c2ccc(-n3nnc4cccnc43)cc2)c2ncccc2Cl)C1 (stereo not shown) [CLY-11] | 11.62 ± 1.21 nmol/mL | 95.13 ± 9.16 NU/ml | 0.54 ± 0.06 µg | 6.45 pg/mL | 63.5% |
| O=C(c1ccc(-c2ccccc2-c2nnn[nH]2)cc1)N(c1ncccc1Cl)[C@@H]1CCCNC1 [CLY-19] | 11.75 ± 1.26 nmol/mL | 96.53 ± 9.21 NU/ml | 0.56 ± 0.07 µg | 5.72 pg/mL | 66.3% |
| O=C(c1ccc(-c2ccccc2Cl)cc1)N(c1ncccc1Cl)[C@@H]1CCCNC1 [CLY-36] | 11.83 ± 1.27 nmol/mL | 93.42 ± 9.03 NU/ml | 0.58 ± 0.08 µg | 5.86 pg/mL | 68.6% |
| Nc1ccccc1-c1ccc(C(=O)N(c2ncccc2Cl)[C@@H]2CCCNC2)cc1 [CLY-39] | 10.81 ± 1.23 nmol/mL | 103.16 ± 9.65 NU/ml | 0.46 ± 0.05 µg | 5.75 pg/mL | 65.6% |
